Results as given in patent publication US9765034B2, “5-halogenopyrazole biphenylcarboxamides” (BAYER CROPSCIENCE AG, priority 2012, dated 2017).

How the values were obtained:
Pyricularia oryzae = type: in vivo; settings: rice plants, preventive spray, 500 ppm, grading 6 days after contamination
Puccinia recondita = experiment: In vivo preventive test on Puccinia recondita (brown rust on wheat); settings: wheat plants, preventive spray, 500 ppm, grading 12 days after contamination
Protocol: Example: In Vivo Preventive Test on Puccinia recondita (Brown Rust on Wheat) […] Wheat plants (“Scipion” variety), sown in starter cups on a 50/50 peat soil-pozzolana substrate and grown at 22° C., are treated at the 1-leaf stage (10 cm height) by spraying with the active ingredient prepared as described above. Plants, used as controls, are treated with the mixture of acetone/tween/DMSO/water not containing the active material. After 24 hours, the plants are contaminated by spraying the leaves with an aqueous suspension of Puccinia […] spores (100 000 spores per ml). […] Grading (% of efficacy) is carried out 12 days after the contamination, in comparison with the control plants. Under these conditions, good (at least 70%) or total protection is observed at a dose of 500 ppm with the following compounds: […]

Pyrenophora teres = experiment: In vivo preventive test on Pyrenophora teres (net blotch on barley); settings: barley plants, preventive spray, 500 ppm, grading 14 days after contamination
Protocol: Example: In Vivo Preventive Test on Pyrenophora teres (Net Blotch on Barley) […] Barley plants (“Plaisant” variety), sown in starter cups on a 50/50 peat soil-pozzolana substrate and grown at 22° C., are treated at the 1-leaf stage (10 cm height) by spraying with the active ingredient prepared as described above. Plants, used as controls, are treated with the mixture of acetone/tween/DMSO/water not containing the active material. After 24 hours, the plants are contaminated by spraying the leaves with an aqueous suspension of Pyrenophora teres spores (12 000 spores per ml). The spores are collected from a 12-day-old culture. […] Grading (% of efficacy) is carried out 14 days after the contamination, in comparison with the control plants. Under these conditions, good (at least 70%) or total protection is observed at a dose of 500 ppm with the following compounds: […]

[1] = logP by HPLC on reversed phase columns (EEC directive 79/831 Annex V.A8); settings: method [a]: LC-MS at pH 2.7, 0.1% formic acid in water / acetonitrile gradient 10% to 95%
Sphaerotheca fuliginea = experiment: In vivo preventive test on Sphaerotheca fuliginea (powdery mildew on cucurbits); settings: gherkin plants, preventive spray, 500 ppm, grading 12 days after contamination
Protocol: Example: In Vivo Preventive Test on Sphaerotheca fuliginea (Powdery Mildew on Cucurbits) […] Gherkin plants (“Vert petit de Paris” variety), sown in starter cups on a 50/50 peat soil-pozzolana substrate and grown at 24° C., are treated at the Z11 cotyledon stage by spraying with the active ingredient prepared as described above. Plants, used as controls, are treated with the mixture of acetone/tween/DMSO/water not containing the active material. After 24 hours, the plants are contaminated by spraying the cotyledons with an aqueous suspension of Sphaerotheca fuliginea spores (100 000 spores per ml). The spores are collected from infected plants. […] Grading (% of efficacy) is carried out 12 days after the contamination, in comparison with the control plants. Under these conditions, good (at least 70%) or total protection is observed at a dose of 500 ppm with the following compounds: […]

Alternaria brassicae = experiment: In vivo preventive test on Alternaria brassicae (leaf spot on radish); settings: radish plants, preventive spray, 500 ppm, grading 6 days after contamination
Protocol: Example: In Vivo Preventive Test on Alternaria brassicae (Leaf Spot on Radish) […] Radish plants (“Pernod Clair” variety), sown in starter cups on a 50/50 peat soil-pozzolana substrate and grown at 17° C., are treated at the cotyledon stage by spraying with the active ingredient prepared as described above. Plants, used as controls, are treated with the mixture of acetone/tween/DMSO/water not containing the active material. After 24 hours, the plants are contaminated by spraying the cotyledons with an aqueous suspension of Alternaria brassicae spores (50 000 spores per ml). The spores are collected from a 15-day-old culture. […] Grading (% of efficacy) is carried out 6 days after the contamination, in comparison with the control plants. Under these conditions, good (at least 70%) or total protection is observed at a dose of 500 ppm with the following compounds: […]

Botrytis cinerea = experiment: In vivo preventive test on Botrytis cinerea (grey mould); settings: gherkin plants, preventive spray, 500 ppm, grading 4 to 5 days after contamination
Protocol: Example: In Vivo Preventive Test on Botrytis cinerea (Grey Mould) […] Gherkin plants (“Vert petit de Paris” variety), sown in starter cups on a 50/50 peat soil-pozzolana substrate and grown at 24° C., are treated at the Z11 cotyledon stage by spraying with the active ingredient prepared as described above. Plants, used as controls, are treated with the mixture of acetone/tween/DMSO/water not containing the active material. After 24 hours, the plants are contaminated by spraying the cotyledons with an aqueous suspension of cryopreserved Botrytis cinerea spores (50 000 spores per ml). The spores are suspended in a nutrient solution composed of 10 g/L of PDB, 50 g/L of D-Fructose, 2 g/L of NH4NO3 and 1 g/L of KH2PO4. […] Grading (% of efficacy) is carried out 4 to 5 days after the contamination, in comparison with the control plants. Under these conditions, good (at least 70%) or total protection is observed at a dose of 500 ppm with the following compounds: […]

Uromyces appendiculatus = experiment: In vivo preventive test on Uromyces appendiculatus (bean rust); settings: bean plants, preventive spray, 500 ppm, grading 11 days after contamination
Protocol: Example: In Vivo Preventive Test on Uromyces appendiculatus (Bean Rust) […] Bean plants (“Saxa” variety), sown in starter cups on a 50/50 peat soil-pozzolana substrate and grown at 24° C., are treated at the 2-leaf stage (9 cm height) by spraying with the active ingredient prepared as described above. Plants, used as controls, are treated with the mixture of acetone/tween/DMSO/water not containing the active material. After 24 hours, the plants are contaminated by spraying the leaves with an aqueous suspension of Uromyces appendiculatus spores (150 000 spores per ml). […] Grading (% of efficacy) is carried out 11 days after the contamination, in comparison with the control plants. Under these conditions, good (at least 70%) or total protection is observed at a dose of 500 ppm with the following compounds: […]

Septoria tritici = experiment: In vivo preventive test on Septoria tritici (leaf spot on wheat); settings: wheat plants, preventive spray, 500 ppm, grading 24 days after contamination
Protocol: Example: In Vivo Preventive Test on Septoria tritici (Leaf Spot on Wheat) […] Wheat plants (“Scipion” variety), sown in starter cups on a 50/50 peat soil-pozzolana substrate and grown at 22° C., are treated at the 1-leaf stage (10 cm height) by spraying with the active ingredient prepared as described above. Plants, used as controls, are treated with the mixture of acetone/tween/DMSO/water not containing the active material. After 24 hours, the plants are contaminated by spraying the leaves with an aqueous suspension of cryopreserved Septoria tritici spores (500 000 spores per ml). […] Grading (% of efficacy) is carried out 24 days after the contamination, in comparison with the control plants. Under these conditions, good (at least 70%) or total protection is observed at a dose of 500 ppm with the following compounds: […]

Phakopsora pachyrhizi = experiment: In vivo Phakopsora test (soybeans)/preventive; settings: preventive, 100 ppm of active ingredient, evaluated 7 days after inoculation
Protocol: Example: In Vivo Phakopsora Test (Soybeans)/Preventive Solvent: 24.5 parts by weight of acetone • 24.5 parts by weight of dimethylacetamide Emulsifier: • 1 part by weight of alkylaryl polyglycol ether To produce a suitable preparation of active compound, 1 part by weight of active compound is mixed with the stated amounts of solvent and emulsifier, and the concentrate is diluted with water to the desired concentration. To test for preventive activity, young plants are sprayed with the preparation of active compound at the stated rate of application. After the spray coating has dried on, the plants are inoculated with an aqueous to spore suspension of the causal agent of soybean rust (Phakopsora pachyrhizi) and stay for 24 h without light in an incubation cabinet at approximately 24° C. and a relative atmospheric humidity of 95%.

Phytophthora infestans = type: in vivo; settings: tomato plants, preventive spray, 500 ppm, grading 5 days after contamination

Row | Compound | Eff. % (Pyricularia oryzae) | Eff. % (Puccinia recondita) | Eff. % (Pyrenophora teres) | logP [1] | Eff. % (Sphaerotheca fuliginea) | Eff. % (Alternaria brassicae) | Eff. % (Botrytis cinerea) | Eff. % (Uromyces appendiculatus) | Eff. % (Septoria tritici) | Eff. % (Phakopsora pachyrhizi) | Eff. % (Phytophthora infestans)
1 | CCON=Cc1ccc(-c2ccccc2NC(=O)c2c(C(F)F)nn(C)c2Cl)cc1 [Example 6] | 100% | 100% | 100% | 4.19[a] | 100% | 97% | 93% | 100% | – | – | –
2 | CC#CCON=C(C)c1ccc(-c2ccccc2NC(=O)c2c(C(F)F)nn(C)c2Cl)cc1 [Example 27] | – | 98% | – | 4.41[a] | 100% | – | – | 100% | 70% | 100% | –
3 | CC#CCON=Cc1ccc(-c2ccccc2NC(=O)c2c(C(F)F)nn(C)c2Cl)cc1 [Example 22] | – | 98% | – | 4.13[a] | 100% | 75% | 98% | 100% | 96% | – | –
4 | CC#CCON=C(C)c1ccc(-c2ccccc2NC(=O)c2c(C(F)F)nn(C)c2F)cc1 [Example 13] | – | 100% | 88% | 4.11[a] | 100% | – | 80% | 100% | 80% | 100% | –
5 | C#CCON=Cc1ccc(-c2ccccc2NC(=O)c2c(C(F)F)nn(C)c2Cl)cc1 [Example 5] | 90% | 100% | 86% | 3.79[a] | 100% | 88% | 100% | 100% | – | – | –
6 | CC#CCON=Cc1ccc(-c2ccccc2NC(=O)c2c(C(F)F)nn(C)c2F)cc1 [Example 21] | – | 94% | 88% | 3.87[a] | 100% | – | 98% | 100% | 96% | – | –
7 | CCON=Cc1ccc(-c2ccccc2NC(=O)c2c(C(F)F)nn(C)c2Cl)cc1C [Example 39] | – | 97% | 100% | 4.48[a] | 100% | 94% | 99% | 100% | 92% | – | –
8 | CON=Cc1c(F)cc(-c2ccccc2NC(=O)c2c(C(F)F)nn(C)c2Cl)cc1F [Example 23] | – | 98% | 97% | 3.61[a] | 100% | 97% | – | 100% | 97% | – | –
9 | CCON=Cc1ccc(-c2c(F)cccc2NC(=O)c2c(C(F)F)nn(C)c2Cl)cc1 [Example 40] | – | 97% | 90% | 4.18[a] | 100% | 94% | – | 100% | 75% | – | –
10 | CON=Cc1ccc(-c2ccccc2NC(=O)c2c(C(F)F)nn(C)c2Cl)cc1C [Example 25] | – | 100% | 100% | 4.04[a] | 100% | 94% | 98% | 94% | 75% | – | –
11 | CCON=Cc1ccc(-c2ccccc2NC(=O)c2c(C(F)F)nn(C)c2Cl)cc1F [Example 18] | – | 97% | 100% | 4.22[a] | 100% | 94% | 70% | 100% | 75% | – | –
12 | C#CCON=C(C)c1ccc(-c2ccccc2NC(=O)c2c(C(F)F)nn(C)c2F)cc1 [Example 12] | – | 98% | 80% | 3.8[a] | 96% | 97% | 85% | 100% | 75% | – | –
13 | C#CCON=C(C)c1ccc(-c2ccccc2NC(=O)c2c(C(F)F)nn(C)c2Cl)cc1 [Example 3] | – | 98% | – | 4.06[a] | 70% | – | – | 100% | – | – | 99%
14 | CON=Cc1ccc(-c2ccccc2NC(=O)c2c(C(F)F)nn(C)c2Cl)cc1C(F)(F)F [Example 24] | – | 100% | 97% | 4.25[a] | 100% | 92% | – | 100% | 92% | – | –
